In US6740637B1, “Chlorophyll and bacteriochlorophyll derivatives, their preparation and pharmaceutical compositions comprising them” (priority 1998, dated 2004):

Assays:
M2R cells = assay type: cell-based, mouse
Experimental: Alternatively, photodynamic toxicity was determined by [^3H] thymidine incorporation. In this case, changes in rates of [^3H] thymidine incorporation following PDT were performed as follows: Cell cultures (4-5×10^4 cells/well in about 40-50% confluency grown in 10% fetal bovine serum) were pulsed with 1μ Ci/ml thymidine [methyl-^3H] for 2 h at 37° C. Cultures were then washed twice with cold phosphate-buffered saline (PBS), treated with 7.5% ice cold trichloroacetic acid (TCA) for 30 min at 4° C., washed 2 times with ethanol. Cells were then dissolved in 0.3 ml of 1 M NaOH at 37° C. for 15 min. Samples of 100 μl were neutralized with 100 μl of 1N HCI and 4 ml of 0.1 M imidazole and counted in a 20:8 (vol/vol) xylene scintillator/Lumax mixture. […] Results are given as means±SD of triplicate determinations.

S. Aureus = assay type: cell-based, Staphylococcus Aureus
Experimental: (§1) 1. Preincubation: Bacteria or viruses were preincubated in the absence (untreated control) or presence of increasing concentration of photosensitizer for 1-2 h at room temperature or 37° C. in the dark.
(§2) 2. Illumination: One set of untreated control and one set of sensitizer treated samples were exposed to light for 5-10 min. An identical group was kept in the dark (dark control).
(§3) 3. Viability: samples of the controls and experimental groups were subjected for quantitation of survival and viability was calculated as per cent of untreated control.
(§4) The light source for illumination was a 250W halogen lamp. The light was focused on a glass support and filtered to eliminate light below 630 nm. The light intensity at the target level was 1500 μEinstein/cm^2. Illumination for Bchl-Ser against S. aureus was performed as described Example 17 herein.
(§5) Stocks of bacteria (S. aureus, B. subtilis, E. coli) were preserved on solid LB agar slants at 4° C. Two hours prior to the experiment, bacteria were transferred to liquid LB media and grown at 37° C. with continuous shaking. P. Acnes (ATCC-CR 6919) bacteria were grown on agar 1053 reinforced clostridial medium (Oxoid CM 149 ) and incubated at 37° C. […]
(§6) Aliquots (20 or 30 μl) of bacterial suspensions were plated on LB agar plates for 24 h at 37° C. […] Colonies were counted and per cent viability was calculated from untreated control. […]

B. Subtilis = assay type: cell-based, Bacilus Subtilis
Experimental: as §1, §2, §3, §4, §5, §6

E.Coli = experiment: PDT of bacteria with Chl-Ser, colony counting; assay type: cell-based, Escherichia Coli
Experimental: as §1, §2, §3, §4, §5, §6

[1] = test system: Propionibacterium Acnes (under aerobic conditions); assay type: cell-based
Experimental: as §1, §2, §3, §4
(§7) Stocks of bacteria (S. aureus, B. subtilis, E. coli) were preserved on solid LB agar slants at 4° C. Two hours prior to the experiment, bacteria were transferred to liquid LB media and grown at 37° C. with continuous shaking. P. Acnes (ATCC-CR 6919) bacteria were grown on agar 1053 reinforced clostridial medium (Oxoid CM 149 ) and incubated at 37° C. Culturing was performed in transparent culture jars made anaerobic with a gas generator envelop containing palladium catalyst, (Gas pack Plus Anaerobic system envelopes with Palladium catalyst, Beckton Dickenson Cockesyville Md. 21030 USA) (anaerobic culture) or in the open air (aerobic culture) The bacteria were incubated for 3-4 days before the experiments were carried out.
(§8) Aliquots (20 or 30 μl) of bacterial suspensions were plated on LB agar plates for 24 h at 37° C. ((S. aureus, B. subtilis, E. coli)) or on agar 1053 reinforced clostridial medium (P.acnes). Colonies were counted and per cent viability was calculated from untreated control.
(§9) P. Acnes bacteria at an optical density of A650 nm=0.014 were diluted in PBS to 1:10^−3 and divided into test tubes. Samples of 200 μl were either non treated or incubated with increasing concentration of Chl-Ser. Samples kept in dark were rapped with aluminum foil. All the tubes were placed in the anaerobic jar and incubated for 2 h at 37° C. The anaerobic chamber was placed on the glass support of the light source and samples were illuminated for 5 min. Test tubes with bacteria and sensitizers for the aerobic experiments were left in culture incubator for 2 h and exposed to light for 5 min in the open air. Samples of 20 μl from the anaerobic and aerobic experiments were taken out and spread onto agar plates and culture under anaerobic conditions. After 4 days of anaerobic incubation at 37° C. the colonies formed were counted and per cent viable cells calculated from control. Survival curves were determined based on 6-7 experiments. PDT experiments performed on S. Aureus with Bchl-Ser were conducted as described in Example 17 herein.

[2] = test system: Propionibacterium Acnes (under anaerobic conditions); assay type: cell-based
Experimental: as §1, §2, §3, §4, §7, §8, §9

[3] = test system: Herpes simplex virus-1 (in infected Vero cells); experiment: PDT of HSV-1 in infected Vero cells, plaque assay; assay type: cell-based, Herpes simplex virus type 1
Experimental: Vero cells (Kidney African Green Monkey cells) were grown in DMEM+F12 medium buffered with 25 mM HEPES supplemented with 10% foetal bovine serum (FBS).Herpes simplex virus type 1 (HSV-1) was isolated from the eye of a patient with dentritic keratitis and maintained in culture.
(§10) For viral infection Vero cells (2×10^4/well) were cultured at 37° C. for 2 days in 24 well microplates. The culture medium was replaced with fresh medium containing 2% FBS and the cells infected with HSV-1 (200 μl) at multiplicity of infection (MOI) of 1-3. The cells were further incubated at 37° C. for 3 days. The medium was collected and centrifuged for 5 min in a clinical centrifuge to remove cells and cell debris. The concentration of viral particle was determined as described below and the suspension was aliquoted and kept at −80° C. until used.
(§11) Vero cells were inoculated with 10 fold dilutions of HSV-1 and cultured for 2 h at 37° C. The medium was then replaced with fresh DMEM containing 2% FBS and 0.7% methylcellulose and the cells were further incubated for 3 days. The overlayer was then decanted and the cells fixed and stained with crystal violet. Virus induced plaques were manually counted and plaque forming units (PFU/ml) were calculated.
Vero cells were infected with HSV-1 and incubated for four hours. Cells were then further incubated in dark for 1 h without or with Chl-Ser at the indicated concentrations. Cells were then washed three times with medium and immediately illuminated for 10 min. Subsequently the cells were incubated for 3 days for viral multiplication and media collected for quantitation. The appropriate controls described above were included in each experiment.

[4] = test system: Herpes simplex virus-1 (HSV-1) (in free suspension); experiment: PDT of HSV-1 in suspension, plaque assay; assay type: cell-based, Herpes simplex virus type 1
Experimental: as §10, §11
HSV-1 suspended in culture medium to a concentration of 2×10^6 PFU/ml was dispensed (0.5 ml/well) into 24 well microplates and incubated in the dark for 1 h at 37° C. in the absence or presence of the indicated Chl-Ser concentrations. The experimental groups were then exposed to light for 10 min. The appropriate controls described above were included in each experiment. Viral survival was quantitated as described above.

## C=Cc1c(C)c2cc3nc(c4c5[n-]c(cc6nc(cc1[n-]2)C(C)=C6CC)c(C)c5C(=O)[C@@H]4C(=O)OC)[C@@H](CCC(=O)OC[C@H](N)C(=O)OC)[C@@H]3C.[Mg+2] [Chla-L-Ser-OMe, L-seryl Methyl Ester Chlorophyllidea]
M2R cells
  [3H] thymidine incorporation without irradiation: not observed in the dark controls
M2R cells; 60 min with increasing concentrations, light source B, 24 h later
  [3H] thymidine incorporation after PDT: dose dependent reduction in the ability of the cells to incorporate [^3H] thymidine
S. Aureus
  effect in dark: neither light alone nor Chl-Ser in dark showed any effect
B. Subtilis
  effect in dark: neither light alone nor Chl-Ser in dark showed any effect
E.Coli
  concentration up to which phototoxicity could be detected, beyond which toxic in the dark: ~5 µM
  sensitivity to Chl-Ser and light: significant resistance
[1]
  colony counts with sensitizer alone in dark: not different from those of untreated samples
[1]; aerobic conditions, light 5 min
  LD50: 10 nM
[1]; concentration range of 0.1 to 1×10^−7M, aerobic
  phototoxicity in the presence of light: dose dependent phototoxicity
[2]
  colony counts with sensitizer alone in dark: not different from those of untreated samples
[2]; anaerobic conditions, light 5 min
  LD50: 30 nM
[2]; concentration range of 0.1 to 1×10^−7M, anaerobic
  phototoxicity in the presence of light: dose dependent phototoxicity
[3]
  concentration of maximal toxicity: ~500 nM
[3]; 1 h with Chl-Ser, illuminated 10 min, read-out: half maximal effect on viral survival
  EC50: ~150 nM
[3]; same concentrations range, dark
  effect in the dark: no effect in the dark
[4]
  concentration of maximal toxicity: > 20 nM
[4]; 1 h with Chl-Ser, light 10 min, read-out: half maximal dose of sensitizer
  EC50: ~10 nM
[4]; tested concentration range, dark
  toxicity in the dark: not toxic in the dark
